Consider 14 molecules from PMC8125951, “Exploring the 2′-Hydroxy-Chalcone Framework for the Development of Dual Antioxidant and Soybean Lipoxygenase Inhibitory Agents” (Molecules, 2021).

SMILES strings stand for the structures. Values joined by “and” are separate entries in the source; they are usually repeats but may differ in a detail not shown here. Identical values can stand only once. Like-named read-outs stand apart in the source and are kept apart here.

A short description of experiment [1]: Interaction with the stable free radical DPPH (reducing activity). Particulars: 100 μM. Here is the method:
The first assay refers to the interaction of the compounds with the stable free radical DPPH and it is a fast, simple, cost-effective, and widely used method, where the DPPH radical reacts directly with the antioxidant and is decolorized. This interaction indicates their radical scavenging ability in an iron-free system. The scavenging effect of the synthesized analogues on the DPPH radical was evaluated according to the methods of Hadjipavlou et al..
To an ethanolic solution of DPPH (100 μM) in absolute ethanol, an equal volume of the compounds dissolved in DMSO was added (100 μM). […]
A general note: The DPPH test is a chemical assay of radical scavenging.

Experiment [2] in a line: Inhibition of linoleic acid lipid peroxidation induced by AAPH. The source says: The second technique is based on the ability of the compounds to inhibit lipid peroxidation of linoleic acid induced by 2,2′-Azobis(2-amidinopropane) dihydrochloride (AAPH) radical (Table 2). AAPH-induced linoleic acid oxidation has been developed as a quick and reliable method for measuring the antioxidant activity. The thermal free radical producer (AAPH) generates free radicals in the solution which cause the oxidation of linoleic acid, and the method is a measure of how effective antioxidants protect against lipid peroxidation in vitro. Oxidation of linoleic acid by AAPH is followed by UV spectrophotometry in a highly diluted sample [61].
2,2′-Azobis(2-amidinopropane) dihydrochloride (AAPH) was used as a free radical initiator. Ten microliters of the 16 mM linoleic acid sodium salt solution was added to the UV cuvette containing 0.93 mL of 0.05 M phosphate buffer, pH 7.4 prethermostated at 37 °C. The oxidation reaction was initiated at 37 °C under air by the addition of 50 μL of 40 mM AAPH solution. Oxidation was carried out in the presence of the synthesized compounds (10 μL, from a stock solution of 10 mM in DMSO). In the assay without antioxidant, lipid oxidation was measured in the presence of the same level of DMSO.

Experiment [3] concerns the target T1, soybean lipoxygenase (Glycine max, UniProt P08170).
T1 sequence (P08170 1-839): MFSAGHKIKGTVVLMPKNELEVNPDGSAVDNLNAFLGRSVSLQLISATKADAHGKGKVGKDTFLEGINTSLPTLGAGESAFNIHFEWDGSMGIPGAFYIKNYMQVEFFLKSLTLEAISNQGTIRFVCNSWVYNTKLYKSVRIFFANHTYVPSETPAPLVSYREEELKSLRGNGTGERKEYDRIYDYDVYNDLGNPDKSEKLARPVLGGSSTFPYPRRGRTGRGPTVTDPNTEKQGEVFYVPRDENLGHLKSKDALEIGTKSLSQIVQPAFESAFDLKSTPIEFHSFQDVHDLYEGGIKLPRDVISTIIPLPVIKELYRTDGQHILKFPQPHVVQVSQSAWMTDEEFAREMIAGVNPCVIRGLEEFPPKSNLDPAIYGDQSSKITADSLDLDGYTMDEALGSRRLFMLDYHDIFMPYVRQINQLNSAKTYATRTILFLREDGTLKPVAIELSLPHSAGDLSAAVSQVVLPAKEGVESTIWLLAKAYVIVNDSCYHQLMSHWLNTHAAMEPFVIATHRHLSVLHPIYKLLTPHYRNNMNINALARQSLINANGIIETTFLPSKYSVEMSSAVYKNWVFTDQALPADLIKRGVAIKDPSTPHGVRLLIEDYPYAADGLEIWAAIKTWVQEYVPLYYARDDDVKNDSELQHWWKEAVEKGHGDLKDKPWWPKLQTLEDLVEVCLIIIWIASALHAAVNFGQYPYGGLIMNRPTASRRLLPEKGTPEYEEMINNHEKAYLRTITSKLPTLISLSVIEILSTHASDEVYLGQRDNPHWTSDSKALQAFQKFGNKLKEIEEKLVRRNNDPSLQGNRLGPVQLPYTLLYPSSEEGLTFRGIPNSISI
The experiment is described as follows: Soybean LOX inhibition study in vitro. Type of experiment: biochemical. Particulars: for inhibition at 100 µM: read-out: Inhibition of Soybean Lipoxygenase 100 μM (%), at 100 μM. Here is the method:
Furthermore, as an indication of their anti-inflammatory activity, all the molecules were tested as inhibitors of soybean lipoxygenase (LOX). The enzyme lipoxygenase catalyzes the first two steps in the metabolism of arachidonic acid, which is cleaved from membrane phospholipids to leukotrienes (LTB4). LTB4 generation is considered to be important in the pathogenesis of neutrophil-mediated inflammatory diseases. For this study, the UV absorbance-based soybean LOX assay was used, which is a plant enzyme with satisfactory homology with the human 5-LOX [61, 62, 63, 64, 65, 66].
The tested compounds dissolved in DMSO were incubated at room temperature with sodium linoleate (0.1 mL) and 0.2 mL of enzyme solution ([…] in saline) in Tris buffer pH 9.

The nature of experiment [4]: Competition of the tested compounds with DMSO for hydroxyl radicals. The conditions noted are these: 100 μM. An excerpt: Among the reactive oxygen species (ROS), the hydroxyl (^•OH) free radical is possibly the most toxic, reacting with several biological important molecules such as DNA, lipids, or carbohydrates. Polyunsaturated fatty acids are particularly vulnerable by free radicals. Iron released from damaged cells is more likely to be readily available to catalyze the generation of ^•OH radicals. Thus, we tried to test the ability of our compounds to scavenge hydroxyl radicals determining the competition of selected chalcones and aurones with DMSO for hydroxyl radicals. Hydroxyl radicals were generated using the Fe^3+/ascorbic acid system and expressed as a percentage inhibition of formaldehyde production in the presence of each compound at 100 μM.
The hydroxyl radicals generated by the Fe^3+ / ascorbic acid system, were detected by the determination of formaldehyde produced from the oxidation of DMSO (Table 2). A negative control using the same % DMSO was used. Trolox was used as reference compound [75].

Experiment [5] can be described thus: ABTS radical cation decolorization assay. Particulars: 100 μM. Here is the method:
The ABTS radical cation decolorization assay was used as another antioxidant activity estimation protocol (Table 2). Oxidation of ABTS with potassium persulfate generates directly the radical with no involvement of an intermediate radical, which is then reduced upon adding electron-donating antioxidants.
In order to produce the ABTS radical cation (ABTS^+·), ABTS stock solution in water (7 mM) was mixed with potassium persulfate (2.45 mM) and left in the dark at room temperature for 12–16 h before use. Our published experimental technique was used (1). The results are recorded after 1 min of the mixing solutions at 734 nm. The results were compared to the appropriate standard inhibitor Trolox.

[6] abbreviates: read-out: Inhibition of Soybean Lipoxygenase IC50.

As to `COC(=O)c1ccc(/C=C/C(=O)c2ccccc2O)cc1` [Compound 5, 4-Methoxycarbonyl-2′-Hydroxy-Chalcone], the “Interaction with the Free Radical DPPH (%)” value in experiment [1] (20 min) and in experiment [1] (60 min) was “no” each time. In addition, the “Inhibition of Lipid Peroxidation of Linoleic Acid Induced by AAPH Radical (%)” value (“Inhibition of Lipid Peroxidation … (%)” for short) in experiment [2] (0 min) was 95.4%; in experiment [2] (100 μM), 100%; in experiment [2] (3 min) it was 96.9%; in experiment [2] (6 min), 92.5%; in experiment [2] (9 min), 98.9%. Besides, the IC50 (in general, the concentration at which inhibition is half-maximal) in experiment [3] (setting [6]) was 100 µM.

`COCOc1ccc(/C=C/C(=O)c2cc(Br)cc(Br)c2O)cc1OCOC` [Compound 3i, 3′,5′-bromo-3,4-dimethoxymethoxy-2′-hydroxy-chalcone]: the “Interaction with the Free Radical DPPH (%)” value in experiment [1] (20 min) was “totally inactive and no”; in experiment [1] (60 min) it was “no”. Moreover, the “Inhibition of Lipid Peroxidation … (%)” value in experiment [2] (0 min) is recorded as 95.6%; in experiment [2] (100 μM) it was 93.0%; in experiment [2] (3 min) it was 98.6%; in experiment [2] (6 min) it was 96.9%; in experiment [2] (9 min), 99.2%. Also, the IC50 in experiment [3] (setting [6]) came to 67.5 µM.

In the case of `O=C(O)c1ccc(/C=C/C(=O)c2cc(Cl)ccc2O)cc1` [Compound 3k, 4-carboxy-5′-chloro-2′-hydroxy-chalcone], the “Interaction with the Free Radical DPPH (%)” value in experiment [1] (20 min) and in experiment [1] (60 min) was “no” each time. Besides, the “Inhibition of Lipid Peroxidation … (%)” value in experiment [2] (100 μM) is reported as “no”. Besides, the 50% inhibitory concentration (IC50) in experiment [3] (setting [6]) was 67.5 µM.

`COCOc1ccc(/C=C/C(=O)c2cc(Br)ccc2O)cc1OCOC` [Compound 3h, 5′-bromo-3,4-dimethoxymethoxy-2′-hydroxy-chalcone]: the “Interaction with the Free Radical DPPH (%)” value in experiment [1] (60 min) is listed as 6.0%. The “Inhibition of Lipid Peroxidation … (%)” value in experiment [2] (100 μM) came to 65.6%. The IC50 in experiment [3] (setting [6]) turned out to be 55 µM.

Consider `C[C@H](Cc1ccc(O)c(O)c1)[C@@H](C)Cc1ccc(O)c(O)c1` [NDGA, Nordihydroguaiaretic acid, reference compound], for which the “Interaction with the Free Radical DPPH (%)” value was found to be 87.0% in experiment [1] (20 min) and 93.0% in experiment [1] (60 min).

In the case of `COc1ccc(/C=C/C(=O)c2cc(Cl)ccc2O)cc1OC` [Compound 3d, 5′-chloro-3,4-dimethoxy-2′-hydroxy-chalcone], the “Interaction with the Free Radical DPPH (%)” value in experiment [1] (20 min) and in experiment [1] (60 min) was “no” each time. In addition, the “Inhibition of Lipid Peroxidation … (%)” value in experiment [2] (100 μM) is given as “no”. For the same molecule, in experiment [3], the inhibition (commonly how much of the control response was suppressed) at 100 µM was found to be 32%.

On to `COc1cccc(/C=C/C(=O)c2cc(Cl)ccc2O)c1OC` [Compound 3e, 5′-chloro-2,3-dimethoxy-2′-hydroxy-chalcone], for which the “Interaction with the Free Radical DPPH (%)” value in experiment [1] (20 min) and in experiment [1] (60 min) was “no” each time. Besides, the “Inhibition of Lipid Peroxidation … (%)” value in experiment [2] (100 μM) amounted to 20.0%. The IC50 in experiment [3] (setting [6]) worked out at 100 µM.

Turning to `COc1ccc(/C=C/C(=O)c2cc(Br)cc(Br)c2O)cc1OC` [Compound 3g, 3′,5′-dibromo-3,4-dimetoxy-2′-hydroxy-chalcone], the “Interaction with the Free Radical DPPH (%)” value in experiment [1] (20 min) was “totally inactive and no”; in experiment [1] (60 min) it was “no”. In experiment [2] (100 μM), the “Inhibition of Lipid Peroxidation … (%)” value is “inactive and 31.0%”. In addition, in experiment [3] (setting [6]), the IC50 was found to be 68.5 µM.

Turning to `COc1cc(OC)c(OC)cc1/C=C/C(=O)c1ccccc1O` [Compound 3b, 2′-hydroxy-2,4,5-trimethoxy-chalcone], the “Interaction with the Free Radical DPPH (%)” value in experiment [1] (20 min) and in experiment [1] (60 min) was “no” in each case. Moreover, in experiment [2] (100 μM), the “Inhibition of Lipid Peroxidation … (%)” value turned out to be 67.3%. Further, the “HO· (%) competition with DMSO for hydroxyl radicals” value in experiment [4] is on record as “no”. For the same molecule, the IC50 in experiment [3] (setting [6]) was determined as 75 µM.

As for `O=C(O)c1ccc(/C=C/C(=O)c2ccccc2O)cc1` [Compound 3j, 4-carboxy-2′-hydroxy-chalcone], the “Interaction with the Free Radical DPPH (%)” value in experiment [1] (20 min) and in experiment [1] (60 min) was “no” each time. In experiment [2] (100 μM), the “Inhibition of Lipid Peroxidation … (%)” value is listed as “no”. For the same molecule, the IC50 in experiment [3] (setting [6]) turned out to be 100 µM.

As for `O=C(/C=C/c1ccccc1)c1ccccc1O` [Compound 3l, 2′-hydroxy-chalcone], the “Interaction with the Free Radical DPPH (%)” value in experiment [1] (20 min) and in experiment [1] (60 min) was “no” each time. Further, the “Inhibition of Lipid Peroxidation … (%)” value in experiment [2] (0 min) is listed as 87.6%; in experiment [2] (100 μM), 87.6%; in experiment [2] (3 min), 93.2%; in experiment [2] (6 min), 95.7%; in experiment [2] (9 min) it was 94.3%. 100 µM corresponded to half-maximal inhibition in experiment [3] (IC50).

Take `Cc1c(C)c2c(c(C)c1O)CCC(C)(C(=O)O)O2` (stereo not shown) [Trolox, reference compound]: the entries for the “Interaction with the Free Radical DPPH (%)” value in experiment [1] (20 min) and in experiment [1] (60 min) were 93.0% and 93.6%, respectively. Further, in experiment [2] (100 μM), the “Inhibition of Lipid Peroxidation … (%)” value was found to be 92.0%. The “HO· (%) competition with DMSO for hydroxyl radicals” value in experiment [4] was 82%. Moreover, the “ABTS+· %” value in experiment [5] was 93%.

Turning to `COCOc1ccc(C(=O)/C=C/c2cc(OC)c(OC)cc2OC)c(O)c1` [Compound 3c, 2′-hydroxy-4′-methoxymethoxy-2,4,5-trimethoxy-chalcone], the “Interaction with the Free Radical DPPH (%)” value in experiment [1] (20 min) was “no”; in experiment [1] (60 min) it was 2.3%. Also, the “Inhibition of Lipid Peroxidation … (%)” value in experiment [2] (100 μM) was found to be 39.4%. Further, the IC50 in experiment [3] (setting [6]) was 45 µM.

For the molecule `COc1ccc(/C=C/C(=O)c2cc(Br)ccc2O)cc1OC` [Compound 3f, 5′-bromo-3,4-dimethoxy-2′-hydroxy-chalcone], the “Interaction with the Free Radical DPPH (%)” value was “totally inactive and no” in experiment [1] (20 min); “no” in experiment [1] (60 min). In addition, the “Inhibition of Lipid Peroxidation … (%)” value in experiment [2] (100 μM) was “inactive and no”. Also, the inhibition at 100 µM in experiment [3] stood at 38%.
